Test results taken from US9040528B2, “Chemical compounds 542” (AstraZeneca AB, priority 2008, dated 2015).

Biological target: Escherichia coli DNA gyrase A/B tetramer (Escherichia coli (strain K12), UniProt P0AES4+P0AES6)
Experiment: DNA gyrase supercoiling activity fluorescence polarisation assay
Assay type: biochemical
Settings: not given
Procedure: DNA Gyrase Supercoiling Activity Fluorescence Polarisation Assay
The supercoiling reactions may be quenched by the addition of 10 microliters/well of 40 nM oligodeoxynucleotide probe in 3× triplex-forming buffer consisting of 150 mM NaCl, and 150 mM sodium acetate at pH 3.5. The oligodeoxynucleotide probe may be 5′-BODIPY-FL-labeled […]. After 60 minutes, the fluorescence anisotropy of the BODIPY-FL may be measured in a Tecan Ultra plate reader, using 485 nm excitation and 535 nm emission filters equipped with polarizers. The IC50 may be determined by nonlinear regression using two control reactions. The first contains no test compound but 0.8% DMSO (100% activity) while the second control reaction contains 5 μM Ciprofloxacin and 0.8% DMSO (0% activity).

Row | Structure (SMILES) | IC50 [nM]
1 | C[C@@H]1CN2c3c(cc4c(N5CCCCC5)noc4c3F)CC3(C(=O)NC(=O)NC3=O)[C@H]2[C@H](C)O1 (relative stereo) [Example 21] | 2400

Same assay, conditions: 5 nM enzyme, relaxed plasmid, 0.3 mM ATP, ambient temperature; read-out: E. coli DNA gyrase supercoiling IC50

Row | Structure (SMILES) | IC50 [nM]
2 | C[C@@H]1CN2c3c(cc4c(-c5ccccn5)noc4c3F)CC3(C(=O)NC(=O)NC3=O)[C@H]2[C@H](C)O1 (relative stereo) [Example 5, (2R,4S,4aS)-rel-11-fluoro-2,4-dimethyl-8-pyridin-2-yl-1,2,4,4a-tetrahydro-2′H,6H-spiro[isoxazolo[4,5-g][1,4]oxazino[4,3-a]quinoline-5,5′-pyrimidine]-2′,4′,6′(1′H,3′H)-trione] | 200
3 | CC(=O)Nc1noc2c(F)c3c(cc12)CC1(C(=O)NC(=O)NC1=O)[C@H]1[C@H](C)O[C@H](C)CN31 (relative stereo) [Example 6, N-[(2R,4S,4aS)-rel-11-fluoro-2,4-dimethyl-2′,4′,6′-trioxo-1,1′,2,3′,4,4′,4a,6′-octahydro-2′H,6H-spiro[isoxazolo[4,5-g][1,4]oxazino[4,3-a]quinoline-5,5′-pyrimidin]-8-yl]acetamide] | 800
4 | Cc1noc2c(Cl)c3c(cc12)CC1(C(=O)NC(=O)NC1=O)[C@H]1[C@H](C)O[C@H](C)CN31 (relative stereo) [Example 7, (2R,4S,4aS)-rel-11-chloro-2,4,8-trimethyl-1,2,4,4a-tetrahydro-2′H,6H-spiro[1,4-oxazino[4,3-a][1,2]oxazolo[4,5-g]quinoline-5,5′-pyrimidine]-2′,4′,6′(1′H,3′H)-trione] | 400
5 | CC(=O)N1CCN(c2noc3c(F)c4c(cc23)CC2(C(=O)NC(=O)NC2=O)[C@H]2[C@H](C)O[C@H](C)CN42)CC1 (relative stereo) [Example 8, (2R,4S,4aS)-rel-8-(4-acetylpiperazin-1-yl)-11-fluoro-2,4-dimethyl-1,2,4,4a-tetrahydro-2′H,6H-spiro[isoxazolo[4,5-g][1,4]oxazino[4,3-a]quinoline-5,5′-pyrimidine]-2′,4′,6′(1′H,3′H)-trione] | 8300
6 | C[C@@H]1CN2c3c(cc4c(NCc5nccs5)noc4c3F)CC3(C(=O)NC(=O)NC3=O)[C@H]2[C@H](C)O1 (relative stereo) [Example 10, (2R,4S,4aS)-rel-11-fluoro-2,4-dimethyl-8-[(1,3-thiazol-2-ylmethyl)amino]-1,2,4,4a-tetrahydro-2′H,6H-spiro[1,4-oxazino[4,3-a][1,2]oxazolo[4,5-g]quinoline-5,5′-pyrimidine]-2′,4′,6′(1′H,3′H)-trione] | 1900
7 | C[C@@H]1CN2c3c(cc4c(NCc5c[nH]cn5)noc4c3F)CC3(C(=O)NC(=O)NC3=O)[C@H]2[C@H](C)O1 (relative stereo) [Example 11, (2R,4S,4aS)-rel-11-fluoro-8-[(1H-imidazol-4-ylmethyl)amino]-2,4-dimethyl-1,2,4,4a-tetrahydro-2′H,6H-spiro[1,4-oxazino[4,3-a][1,2]oxazolo[4,5-g]quinoline-5,5′-pyrimidine]-2′,4′,6′(1′H,3′H)-trione] | 800
8 | C[C@@H]1CN2c3c(cc4c(NCc5cnn(C)c5)noc4c3F)CC3(C(=O)NC(=O)NC3=O)[C@H]2[C@H](C)O1 (relative stereo) [Example 12, (2R,4S,4aS)-rel-11-fluoro-2,4-dimethyl-8-{[(1-methyl-1H-pyrazol-4-yl)methyl]amino}-1,2,4,4a-tetrahydro-2′H,6H-spiro[1,4-oxazino[4,3-a][1,2]oxazolo[4,5-g]quinoline-5,5′-pyrimidine]-2′,4′,6′(1′H,3′H)-trione] | 1200
9 | Cc1cc(CNc2noc3c(F)c4c(cc23)CC2(C(=O)NC(=O)NC2=O)[C@H]2[C@H](C)O[C@H](C)CN42)no1 (relative stereo) [Example 13, (2R,4S,4aS)-rel-11-fluoro-2,4-dimethyl-8-{[(5-methyl-1,2-oxazol-3-yl)methyl]amino}-1,2,4,4a-tetrahydro-2′H,6H-spiro[1,4-oxazino[4,3-a][1,2]oxazolo[4,5-g]quinoline-5,5′-pyrimidine]-2′,4′,6′(1′H,3′H)-trione] | 1700
10 | C[C@@H]1CN2c3c(cc4c(NCc5cccnc5)noc4c3F)CC3(C(=O)NC(=O)NC3=O)[C@H]2[C@H](C)O1 (relative stereo) [Example 15, (2R,4S,4aS)-rel-11-fluoro-2,4-dimethyl-8-[(pyridin-3-ylmethyl)amino]-1,2,4,4a-tetrahydro-2′H,6H-spiro[1,4-oxazino[4,3-a][1,2]oxazolo[4,5-g]quinoline-5,5′-pyrimidine]-2′,4′,6′(1′H,3′H)-trione] | 1000
11 | C[C@@H]1CN2c3c(cc4c(NCc5ccncc5)noc4c3F)CC3(C(=O)NC(=O)NC3=O)[C@H]2[C@H](C)O1 (relative stereo) [Example 16, (2R,4S,4aS)-rel-11-fluoro-2,4-dimethyl-8-[(pyridin-4-ylmethyl)amino]-1,2,4,4a-tetrahydro-2′H,6H-spiro[1,4-oxazino[4,3-a][1,2]oxazolo[4,5-g]quinoline-5,5′-pyrimidine]-2′,4′,6′(1′H,3′H)-trione] | 2400
12 | C[C@@H]1CN2c3c(cc4c(NCC5CC5)noc4c3F)CC3(C(=O)NC(=O)NC3=O)[C@H]2[C@H](C)O1 (relative stereo) [Example 17, (2R,4S,4aS)-rel-8-[(cyclopropylmethyl)amino]-11-fluoro-2,4-dimethyl-1,2,4,4a-tetrahydro-2′H,6H-spiro[1,4-oxazino[4,3-a][1,2]oxazolo[4,5-g]quinoline-5,5′-pyrimidine]-2′,4′,6′(1′H,3′H)-trione] | 1400
13 | C[C@@H]1CN2c3c(cc4c(NCC5CCCCC5)noc4c3F)CC3(C(=O)NC(=O)NC3=O)[C@H]2[C@H](C)O1 (relative stereo) [Example 18, (2R,4S,4aS)-rel-8-[(cyclohexylmethyl)amino]-11-fluoro-2,4-dimethyl-1,2,4,4a-tetrahydro-2′H,6H-spiro[1,4-oxazino[4,3-a][1,2]oxazolo[4,5-g]quinoline-5,5′-pyrimidine]-2′,4′,6′(1′H,3′H)-trione] | 2900
14 | C[C@@H]1CN2c3c(cc4c(NCC5CCOCC5)noc4c3F)CC3(C(=O)NC(=O)NC3=O)[C@H]2[C@H](C)O1 (relative stereo) [Example 19, (2R,4S,4aS)-rel-11-fluoro-2,4-dimethyl-8-[(tetrahydro-2H-pyran-4-ylmethyl)amino]-1,2,4,4a-tetrahydro-2′H,6H-spiro[1,4-oxazino[4,3-a][1,2]oxazolo[4,5-]quinoline-5,5′-pyrimidine]-2′,4′,6′(1′H,3′H)-trione] | 2900
15 | C[C@@H]1CN2c3c(cc4c(N5CCN(C(=O)OC(C)(C)C)CC5)noc4c3F)CC3(C(=O)NC(=O)NC3=O)[C@H]2[C@H](C)O1 (relative stereo) [Example 20, tert-butyl 4-[(2R,4S,4aS)-rel-11-fluoro-2,4-dimethyl-2′,4′,6′-trioxo-1,1′,2,3′,4,4′,4a,6′-octahydro-2′H,6H-spiro[isoxazolo[4,5-g][1,4]oxazino[4,3-a]quinoline-5,5′-pyrimidin]-8-yl]piperazine-1-carboxylate] | 20000
16 | C[C@@H]1CN2c3c(cc4c(N5CCOCC5)noc4c3F)CC3(C(=O)NC(=O)NC3=O)[C@H]2[C@H](C)O1 (relative stereo) [Example 22, (2R,4S,4aS)-rel-11-fluoro-2,4-dimethyl-8-(morpholin-4-yl)-1,2,4,4a-tetrahydro-2′H,6H-spiro[isoxazolo[4,5-g][1,4]oxazino[4,3-a]quinoline-5,5′-pyrimidine]-2′,4′,6′(1′H,3′H)-trione] | 2600
17 | CCN(CC)c1noc2c(F)c3c(cc12)CC1(C(=O)NC(=O)NC1=O)[C@H]1[C@H](C)O[C@H](C)CN31 (relative stereo) [Example 23, (2R,4S,4aS)-rel-8-(diethylamino)-11-fluoro-2,4-dimethyl-1,2,4,4a-tetrahydro-2′H,6H-spiro[isoxazolo[4,5-g][1,4]oxazino[4,3-a]quinoline-5,5′-pyrimidine]-2′,4′,6′(1′H,3′H)-trione] | 4300
18 | C[C@@H]1CN2c3c(cc4c(N(C)C)noc4c3F)CC3(C(=O)NC(=O)NC3=O)[C@H]2[C@H](C)O1 (relative stereo) [Example 24, (2R,4S,4aS)-rel-8-(dimethylamino)-11-fluoro-2,4-dimethyl-1,2,4,4a-tetrahydro-2′H,6H-spiro[isoxazolo[4,5-g][1,4]oxazino[4,3-a]quinoline-5,5′-pyrimidine]-2′,4′,6′(1′H,3′H)-trione] | 300
19 | C[C@@H]1CN2c3c(cc4c(N5CCCC5)noc4c3F)CC3(C(=O)NC(=O)NC3=O)[C@H]2[C@H](C)O1 (relative stereo) [Example 25, (2R,4S,4aS)-rel-11-fluoro-2,4-dimethyl-8-(pyrrolidin-1-yl)-1,2,4,4a-tetrahydro-2′H,6H-spiro[isoxazolo[4,5-g][1,4]oxazino[4,3-a]quinoline-5,5′-pyrimidine]-2′,4′,6′(1′H,3′H)-trione] | 1500
20 | C[C@@H]1CN2c3c(cc4c(N5CCCCCC5)noc4c3F)CC3(C(=O)NC(=O)NC3=O)[C@H]2[C@H](C)O1 (relative stereo) [Example 26, (2R,4S,4aS)-rel-8-(azepan-1-yl)-11-fluoro-2,4-dimethyl-1,2,4,4a-tetrahydro-2′H,6H-spiro[isoxazolo[4,5-g][1,4]oxazino[4,3-a]quinoline-5,5′-pyrimidine]-2′,4′,6′(1′H,3′H)-trione] | 3700
21 | Cc1cc(C(F)(F)F)nn1-c1noc2c(F)c3c(cc12)CC1(C(=O)NC(=O)NC1=O)[C@H]1[C@H](C)O[C@H](C)CN31 (relative stereo) [Example 27, (2R,4S,4aS)-rel-11-fluoro-2,4-dimethyl-8-[5-methyl-3-(trifluoromethyl)-1H-pyrazol-1-yl]-1,2,4,4a-tetrahydro-2′H,6H-spiro[isoxazolo[4,5-g][1,4]oxazino[4,3-a]quinoline-5,5′-pyrimidine]-2′,4′,6′(1′H,3′H)-trione] | 7100
